According to ChEMBL document CHEMBL3785046, “Synthesis, in vitro and in vivo evaluation of novel substituted N-(4-(2-(4-benzylpiperazin-1-yl)ethoxy)phenyl)-N-methyl-quinazolin-4-amines as potent antitumor agents” (Bioorg Med Chem Lett, 2016):
Calls of active or inactive are those of the source. The calls are words filed in the database; no cut-off is given here.

How the values were obtained:
[1] = test system: HepG2; test: Antitumor activity against human HepG2 cells xenografted with nude mouse assessed as tumor weight at 5 mg/kg, iv administered every 2 days for 31 days; assay type: functional
[2] = test system: HepG2; test: Antitumor activity against human HepG2 cells xenografted with nude mouse assessed as tumor volume at 5 mg/kg, iv administered every 2 days for 31 days (reference value: 103.6 +/- 1.77 mm3); assay type: functional
[3] = test system: MCF7; test: Antiproliferative activity against human MCF7 cells after 24 hrs by MTT assay; assay type: functional, cell-based; settings: MCF7, 24 h
[4] = test system: A549; test: Antiproliferative activity against human A549 cells after 24 hrs by MTT assay; assay type: functional, cell-based; settings: A549, 24 h
[5] = test system: HepG2; test: Antiproliferative activity against human HepG2 cells after 24 hrs by MTT assay; assay type: functional, cell-based; settings: HepG2, 24 h
[6] = Antiproliferative activity against human SW620 cells after 24 hrs by MTT assay; assay type: functional, cell-based; settings: SW-620, 24 h
[7] = test system: HepG2; test: Cell cycle arrest in human HepG2 cells assessed as accumulation at S phase at 100 nM after 24 hrs by propidium iodide staining based flow cytometry (reference value: 39%); assay type: functional
[8] = test system: HepG2; test: Induction of apoptosis in human HepG2 cells assessed as upregulation of cleaved PARP levels at 0.5 uM after 48 hrs by Western blot analysis; assay type: functional, cell-based
[9] = test system: HepG2; test: Downregulation of Cdk1 in human HepG2 cells at 10 to 100 nM after 24 hrs by Western blot analysis; assay type: functional, cell-based
[10] = test system: Mus musculus; test: Toxicity in nude mouse xenografted with human HepG2 cells assessed as abnormal behavior at 10 mg/kg, iv administered every 2 days for 31 days; assay type: organism-based; settings: in vivo
[11] = test system: HepG2; test: Cell cycle arrest in human HepG2 cells assessed as accumulation at G2/M phase at 100 nM after 24 hrs by propidium iodide staining based flow cytometry (reference value: 19%); assay type: functional
[12] = test system: HepG2; test: Induction of apoptosis in human HepG2 cells assessed as upregulation of cleaved caspase-3 levels at 0.5 uM after 48 hrs by Western blot analysis; assay type: functional, cell-based
[13] = test system: HepG2; test: Cell cycle arrest in human HepG2 cells assessed as accumulation at G1 phase at 100 nM after 24 hrs by propidium iodide staining based flow cytometry (reference value: 42%); assay type: functional
[14] = test system: HepG2; test: Upregulation of phosphorylated histone H3 levels in human HepG2 cells at 10 to 100 nM after 24 hrs by Western blot analysis; assay type: functional, cell-based
[15] = test system: Mus musculus; test: Toxicity in nude mouse xenografted with human HepG2 cells assessed as feeding at 10 mg/kg, iv administered every 2 days for 31 days; assay type: organism-based; settings: in vivo
[16] = test system: HepG2; test: Cell cycle arrest in human HepG2 cells assessed as accumulation at G2/M phase at 200 nM after 24 hrs by propidium iodide staining based flow cytometry (reference value: 19%); assay type: functional
[17] = test system: HepG2; test: Cell cycle arrest in human HepG2 cells assessed as accumulation at G2/M phase at 500 nM after 24 hrs by propidium iodide staining based flow cytometry (reference value: 19%); assay type: functional
[18] = test system: HepG2; test: Downregulation of Cdc25C in human HepG2 cells at 10 to 100 nM after 24 hrs by Western blot analysis; assay type: functional, cell-based
[19] = test system: HepG2; test: Cell cycle arrest in human HepG2 cells assessed as accumulation at S phase at 500 nM after 24 hrs by propidium iodide staining based flow cytometry (reference value: 39%); assay type: functional
[20] = test system: HepG2; test: Upregulation of cyclin B1 in human HepG2 cells at 10 to 100 nM after 24 hrs by Western blot analysis; assay type: functional, cell-based
[21] = test system: HepG2; test: Binding affinity to alpha tubulin in human HepG2 cells assessed as disruption of microtubule at 1 uM after 24 hrs by immunofluorescence staining based microscopy; assay type: cell-based
[22] = test system: HepG2; test: Antitumor activity against human HepG2 cells xenografted with nude mouse assessed as tumor mass change at 10 mg/kg, iv administered every 2 days for 31 days; assay type: functional
[23] = test system: HepG2; test: Cell cycle arrest in human HepG2 cells assessed as accumulation at S phase at 200 nM after 24 hrs by propidium iodide staining based flow cytometry (reference value: 39%); assay type: functional
[24] = test system: Mus musculus; test: Toxicity in nude mouse xenografted with human HepG2 cells assessed as weight loss at 10 mg/kg, iv administered every 2 days for 31 days; assay type: organism-based; settings: in vivo
[25] = test system: HepG2; test: Antitumor activity against human HepG2 cells xenografted with nude mouse assessed as tumor volume at 10 mg/kg, iv administered every 2 days for 31 days (reference value: 87.39 +/- 3.529 mm3); assay type: functional
[26] = test system: HepG2; test: Cell cycle arrest in human HepG2 cells assessed as accumulation at G1 phase at 500 nM after 24 hrs by propidium iodide staining based flow cytometry (reference value: 42%); assay type: functional
[27] = test system: HepG2; test: Cell cycle arrest in human HepG2 cells assessed as accumulation at G1 phase at 200 nM after 24 hrs by propidium iodide staining based flow cytometry (reference value: 42%); assay type: functional
[28] = test system: HepG2; test: Induction of apoptosis in human HepG2 cells assessed as upregulation of cleaved PARP levels after 48 hrs by Western blot analysis; assay type: functional, cell-based
[29] = test system: HepG2; test: Antitumor activity against human HepG2 cells xenografted with nude mouse assessed as tumor weight at 10 mg/kg, iv administered every 2 days for 31 days; assay type: functional
[30] = test system: HepG2; test: Cell cycle arrest in human HepG2 cells assessed as accumulation at G2/M phase after 24 hrs by propidium iodide staining based flow cytometry (reference value: 19%); assay type: functional
[31] = test system: HepG2; test: Induction of apoptosis in human HepG2 cells assessed as upregulation of cleaved caspase-3 levels after 48 hrs by Western blot analysis; assay type: functional, cell-based

COc1cccc2c1C(=O)c1c(O)c3c(c(O)c1C2=O)C[C@@](O)(C(=O)CO)C[C@@H]3O[C@H]1C[C@H](N)[C@H](O)[C@H](C)O1.Cl [DOXORUBICIN HYDROCHLORIDE]
Activity [1]: 0.188 g
Activity [2]: 238.7 mm3

Cc1nc(N(C)c2ccc(OCCN3CCN(Cc4ccc(F)c(F)c4)CC3)cc2)c2ccccc2n1
IC50 [3]: 6.12 µM
IC50 [4]: > 10 µM
IC50 [5]: 6.58 µM
IC50 [6]: 3.27 µM

CN(c1ccc(OCCN2CCN(Cc3c(F)cccc3F)CC2)cc1)c1nc(Cl)nc2ccccc12
IC50 [3]: 1.98 µM
IC50 [4]: 6.35 µM
IC50 [5]: 1.45 µM
IC50 [6]: 3.21 µM

Cc1nc(N(C)c2ccc(OCCN3CCN(Cc4ccccc4Br)CC3)cc2)c2ccccc2n1
IC50 [3]: 2.16 µM
IC50 [4]: > 10 µM
IC50 [5]: 0.441 µM
IC50 [6]: 1.23 µM

CN(c1ccc(OCCN2CCN(Cc3ccccc3F)CC2)cc1)c1nc(Cl)nc2ccccc12
Activity [7]: 37%
Activity [8]: Active
IC50 [3]: 0.099 µM
Activity [9]: Active
Activity [10]: Non-toxic
Activity [11]: 25%
IC50 [4]: 0.147 µM
Activity [12]: Active
Activity [13]: 38%
Activity [14]: Active
Activity [15]: Non-toxic
IC50 [5]: 0.029 µM
Activity [16]: 44%
Activity [17]: 67%
Activity [18]: Active
Activity [19]: 23%
Activity [20]: Active
Activity [21]: Active
Activity [22]: 78.69%
Activity [23]: 26%
Activity [24]: Non-toxic
Activity [25]: 259.78 mm3
Activity [26]: 10%
Activity [27]: 30%
Activity [28]: Dose-dependent effect
Activity [29]: 0.217 g
IC50 [6]: 0.052 µM
Activity [30]: Dose-dependent effect
Activity [31]: Dose-dependent effect

CN(c1ccc(OCCN2CCN(Cc3ccccc3Cl)CC2)cc1)c1nc(Cl)nc2ccccc12
IC50 [3]: 1.23 µM
IC50 [4]: 0.371 µM
IC50 [5]: 0.65 µM
IC50 [6]: 0.98 µM

Cc1nc(N(C)c2ccc(OCCN3CCN(Cc4ccccc4F)CC3)cc2)c2ccccc2n1
IC50 [3]: 0.69 µM
IC50 [4]: 0.281 µM
IC50 [5]: 0.089 µM
IC50 [6]: 0.716 µM

CN(c1ccc(OCCN2CCN(Cc3ccc(F)c(F)c3)CC2)cc1)c1nc(Cl)nc2ccccc12
IC50 [3]: 2.34 µM
IC50 [4]: 1.56 µM
IC50 [5]: 1.31 µM
IC50 [6]: 0.892 µM

Cc1nc(N(C)c2ccc(OCCN3CCN(Cc4ccccc4Cl)CC3)cc2)c2ccccc2n1
IC50 [3]: 2.32 µM
IC50 [4]: 0.872 µM
IC50 [5]: 0.555 µM
IC50 [6]: 2.92 µM

CN(c1ccc(OCCN2CCN(Cc3ccc(C(C)(C)C)cc3)CC2)cc1)c1nc(Cl)nc2ccccc12
IC50 [3]: > 10 µM
IC50 [4]: > 10 µM
IC50 [5]: > 10 µM
IC50 [6]: > 10 µM

Cc1nc(N(C)c2ccc(OCCN3CCN(Cc4ccc(C(C)(C)C)cc4)CC3)cc2)c2ccccc2n1
IC50 [3]: > 10 µM
IC50 [4]: > 10 µM
IC50 [5]: > 10 µM
IC50 [6]: > 10 µM

Cc1nc(N(C)c2ccc(OCCN3CCN(Cc4ccccc4C#N)CC3)cc2)c2ccccc2n1
IC50 [3]: 1.01 µM
IC50 [4]: 5.74 µM
IC50 [5]: 0.89 µM
IC50 [6]: 0.883 µM
